This is an account of results in ChEMBL document CHEMBL1139443, “Antitumor agents. Part 230: C4'-esters of GL-331 as cytotoxic agents and DNA topoisomerase II inhibitors” (Bioorg Med Chem Lett, 2004).

Bounds are passed on as bounds.

The nature of series [1]: Lethal dose against KB-7d cells when treated for 30 min. The following applies: human, read-out: LD50. The format is toxicity, cell-based.
Series [2] in a line: Lethal dose against KB cells when treated for 30 min. Format: toxicity, cell-based. The settings on record: human, read-out: LD50.
Series [3] relates to KB. Nature of the series: Compound was evaluated for cytotoxicity against KB-7d cells at 10 uM concentration. The format is functional. The settings on record: Homo sapiens.
Series [4] relates to KB. The experiment in a line: Compound was evaluated for cytotoxicity against KB cells at 10 uM concentration. Format: functional. The settings on record: Homo sapiens.
For series [5], the system named is KB. Nature of the series: Effective dose required for inhibition of KB-7d cell replication after 3 days of continuous treatment. The format is functional. The following applies: Homo sapiens, 72 h, read-out: ED50 (the source's name).
Series [6] concerns KB. The experiment in a line: Lethal dose against KB-7d cells when treated for 30 min; NMD = not markedly different from control. The following applies: human, 0.5 h. Format: toxicity, cell-based.
Series [7] concerns KB. Nature of the series: Compound was evaluated for cytotoxicity against KB-7d cells at 10 uM concentration; NMD = not markedly different from control. The format is functional, cell-based. The settings on record: Homo sapiens.

Turning to `COc1cc([C@@H]2c3cc4c(cc3[C@@H](Nc3ccc([N+](=O)[O-])cc3)[C@H]3COC(=O)[C@H]23)OCO4)cc(OC)c1OC(=O)CCl`, the CC50 at 0.5 h in series [1] and in series [2] was over 10 µM each time. For the same molecule, the cytotoxicity at 10 µM turned out to be 46% with KB [3] and 43% with KB [4]. Besides, the EC50 in the series with KB [5] is 2.3 µM.

Turning to `COc1cc([C@@H]2c3cc4c(cc3[C@@H](Nc3ccc([N+](=O)[O-])cc3)[C@H]3COC(=O)[C@H]23)OCO4)cc(OC)c1OC(=O)C(F)(F)F`, the CC50 at 0.5 h in series [1] and in series [2] was under 10 µM in each case. Moreover, the cytotoxicity at 10 µM was 90% in the series with KB [3] and 62% in the series with KB [4]. Moreover, the EC50 in the series with KB [5] was determined as 1.5 µM.

As to `COc1cc([C@@H]2c3cc4c(cc3[C@@H](O[C@@H]3O[C@@H]5CO[C@@H](C)O[C@H]5[C@H](O)[C@H]3O)[C@H]3COC(=O)[C@H]23)OCO4)cc(OC)c1O` [ETOPOSIDE], the LD50 entry in the series on KB [6] is reported as “Not Markedly Different”. Also, the CC50 at 0.5 h in series [2] was determined as 50 µM. In the series with KB [7], the Cytotoxicity entry is “Not Markedly Different”. In the series with KB [4], the cytotoxicity at 10 µM was found to be 52%. Besides, in the series with KB [5], the EC50 amounted to 11 µM.

For `COc1cc([C@@H]2c3cc4c(cc3[C@@H](Nc3ccc([N+](=O)[O-])cc3)[C@H]3COC(=O)[C@H]23)OCO4)cc(OC)c1OC(C)=O`, the CC50 at 0.5 h in series [1] is under 10 µM; in series [2] it was over 20 µM. Besides, the cytotoxicity at 10 µM in the series with KB [3] was determined as 60%; in the series with KB [4] it was 28%. The EC50 in the series on KB [5] was 2.9 µM.

For the molecule `COc1cc([C@@H]2c3cc4c(cc3[C@@H](Nc3ccc([N+](=O)[O-])cc3)[C@H]3COC(=O)[C@H]23)OCO4)cc(OC)c1O`, the CC50 at 0.5 h in series [1] and in series [2] was under 10 µM throughout. For the same molecule, the cytotoxicity at 10 µM was 94% in the series with KB [3] and 66% in the series on KB [4]. Besides, the EC50 with KB [5] was 1.5 µM.
